Laboratory results from patent US11591369B2, “Alpha(v)beta(6) integrin-binding peptides and methods of use thereof” (priority 2018, dated 2023).
“And” between values parts separate entries of the source, which are not always exact repeats. Equal entries are not always repeated. Where two headings read alike, the source gives them in different places. Where a SMILES comes first, the peptide text is derived from it. Primed or numbered codes have the meaning given here. Where no end group is shown, it is not given here. [ ]: non-standard residue; d: D form. The star is where a group is joined. (18F)FB = [18F] fluorobenzoyl group, O=C(c1ccc([18F])cc1)*; (18F)FB″ = [18F]fluorobenzoyl, O=C(c1ccc([18F])cc1)*; PEG28″ = polyethylene glycol, 28 units; PEG2′ = polyethylene glycol, 2 units; PEG4′ = polyethylene glycol, 4 units; PEG8′ = polyethylene glycol, 8 units; Benzoyl(4-F) = O=C(c1ccc(F)cc1)*; PEG28′ = polyethylene glycol-28; Amb = aminomethylbenzoyl

What was measured:
αvβ3 integrin = target: T1, αvβ3 integrin (Homo sapiens, UniProt P05106+P06756); experiment: Competitive binding ELISA, αvβ3 integrin
T1 construct: All purified integrins were purchased from R&D Systems (MN, USA); purchased R&D Systems (MN, USA)

DX3puroβ6 (αvβ6+) cells = experiment: [18F]-radiolabeled peptide cell binding and internalization, DX3puroβ6 (αvβ6+) cells; assay type: cell-based, human; design: fold increase in binding to DX3puroβ6 (αvβ6+) cells / fold lower binding to DX3puroβ6 (αvβ6+) cells: reference not given here; details: for binding to DX3puroβ6 (αvβ6+) cells: % of total activity, 37° C.
[1] = Circular dichroism (CD) spectroscopy; assay type: physicochemical; details: for % Helical Content CD Buffer: 25 mM phosphate + 100 mM NaF; for % Helical Content CD Buffer + 30% TFE: buffer with 30% trifluoroethanol; for α-helix formation in CD buffer with TFE: buffer with added TFE, 30%
αvβ6 integrin = target: T2, αvβ6 integrin (Homo sapiens, UniProt P06756+P18564); experiment: Competitive binding ELISA against biotinylated LAP (BtLAP), αvβ6 integrin; details: for IC50 αvβ6: competitive ELISA vs BtLAP, mean ± SD, n = 3; for binding selectivity for αvβ6 over αvβ3 and αvβ8 integrins: ELISA IC50 ratio
T2 construct: All purified integrins were purchased from R&D Systems (MN, USA); purchased R&D Systems (MN, USA)

αvβ8 integrin = target: T3, αvβ8 integrin (Homo sapiens, UniProt P06756+P26012); experiment: Competitive binding ELISA, αvβ8 integrin
T3 construct: All purified integrins were purchased from R&D Systems (MN, USA); purchased R&D Systems (MN, USA)

[2] = 37° C., 1 hour, radio-HPLC
[3] = tested on: αvβ6-expressing human tumors; details: mouse, in vivo; cited from earlier work

Row | Molecule | IC50 (αvβ3 integrin) | binding to DX3puroβ6 (αvβ6+) cells (DX3puroβ6 (αvβ6+) cells; 1 hour) | IC50 (αvβ6 integrin) | IC50 (αvβ8 integrin) | DX3puroβ6 (αvβ6+)/DX3puro (αvβ6−) selectivity ratio (DX3puroβ6 (αvβ6+) cells) | percent internalized relative to the amount bound to DX3puroβ6 (αvβ6+) cells (DX3puroβ6 (αvβ6+) cells; 1 hour) | intact peptide in mouse serum [2] | also measured
1 | CC(C)C[C@H](NC(=O)[C@H](CC(=O)O)NC(=O)CNC(=O)[C@@H](N)CCCNC(=N)N)C(=O)N[C@@H](C)C(=O)N[C@@H](CC(=O)O)C(=O)N[C@@H](CC(C)C)C(=O)N[C@@H](CCCNC(=N)N)C(=O)N[C@@H](CCCCNC(=O)c1ccc(F)cc1)C(N)=O [P3] (H-RGDLADLRK(Benzoyl(4-F))-NH2) | > 100000 nM | 10.8±1.4% | 420 ± 70 nM | 200 ± 20 nM | – | – | – | DX3puroβ6 (αvβ6+)/DX3puro (αvβ6−) selectivity ratio (DX3puroβ6 (αvβ6+) cells; cell binding, 1 hour): 1.4±0.2 :1; % Helical Content CD Buffer [1]: 11.6%; % Helical Content CD Buffer + 30% TFE [1]: 7%
2 | CC(C)C[C@H](NC(=O)[C@H](Cc1ccc(O)cc1)NC(=O)[C@@H](NC(=O)[C@H](CC(C)C)NC(=O)[C@H](CC(=O)O)NC(=O)CNC(=O)[C@@H](NC(=O)c1ccc(F)cc1)C(C)C)[C@@H](C)O)C(=O)N[C@@H](CCCCN)C(=O)N[C@@H](CCCNC(=N)N)C(=O)N[C@@H](CCCCN)C(=O)N[C@@H](C)C(=O)N[C@H](C(=O)N[C@H](C(=O)N[C@@H](CCC(N)=O)C(N)=O)C(C)C)[C@@H](C)O [P1Q-Scrb] ({Benzoyl(4-F)}-VGDLTYLKRKATVQ-NH2) | > 100000 nM | – | 14 ± 2 nM | 2900 ± 740 nM | – | – | – | IC50 αvβ6 (αvβ6 integrin): low nanomolar
3 | [^18F]FB-RGDLTYLKQKVART-PEG28 ({(18F)FB″}-RGDLTYLKQKVART[PEG28′]) [N-[^18F]T1-V1R] | – | 34.2±0.2% | – | – | 11.1±0.5 :1 | 11.1±2.6% | 54% | fold increase in binding to DX3puroβ6 (αvβ6+) cells (DX3puroβ6 (αvβ6+) cells): 6 fold
4 | VGDLTYLKK([^18F]FB)KVART (VGDLTYLKK((18F)FB″)KVART) [[^18F]P1K-a] | – | 6.2±1.3% | – | – | – | – | > 99% | –
5 | [^18F]FB-PEG28Amb-VGDLTYLKQKVART-PEG28 ({(18F)FB-PEG28′-Amb}-VGDLTYLKQKVART[PEG28′]) [N-[^18F]T1-g] | – | 3±0.2% | – | – | 5.7±0.06 :1 and 5.7±0.05 :1 | 43.1±4.4% | 90% | fold loss in selectivity for DX3puroβ6 (αvβ6+) cells (DX3puroβ6 (αvβ6+) cells): 7 fold; fold lower binding to DX3puroβ6 (αvβ6+) cells (DX3puroβ6 (αvβ6+) cells): 2 fold
6 | CC(C)C[C@H](NC(=O)[C@H](Cc1ccc(O)cc1)NC(=O)[C@@H](NC(=O)[C@H](CC(C)C)NC(=O)[C@H](CC(=O)O)NC(=O)CNC(=O)[C@@H](N)C(C)C)[C@@H](C)O)C(=O)N[C@@H](CCCCN)C(=O)N[C@@H](CCCCNC(=O)c1ccc(F)cc1)C(N)=O [P1] (H-VGDLTYLKK(Benzoyl(4-F))-NH2) | > 100000 nM | – | 450 ± 60 nM | 5300 ± 140 nM | 1.1 ± 0.1:1 | – | – | % Helical Content CD Buffer [1]: 6.3%; % Helical Content CD Buffer + 30% TFE [1]: 9.5%; α-helix formation in CD buffer with TFE [1]: could not form the helix
7 | [^18F]FB-PEG8-VGDLTYLKQKVART-PEG28 ({(18F)FB″-PEG8′}-VGDLTYLKQKVART[PEG28″]) [N-[^18F]T1-c] | – | – | – | – | – | 36.9±3% | 91% | –
8 | CC(C)C[C@H](NC(=O)[C@H](CC(=O)O)NC(=O)[C@H](CO)NC(=O)[C@H](CCCNC(=N)N)NC(=O)c1ccc(F)cc1)C(=O)N[C@H](C(=O)N1CCC[C@H]1C(=O)N[C@@H](CC(C)C)C(=O)N[C@@H](Cc1ccccc1)C(N)=O)[C@@H](C)O [KL3] ({Benzoyl(4-F)}-RSDLTPLF-NH2) | > 100000 nM | 0.7±0.2% | 1700 ± 500 nM | > 100000 nM | – | – | – | DX3puroβ6 (αvβ6+)/DX3puro (αvβ6−) selectivity ratio (DX3puroβ6 (αvβ6+) cells; cell binding, 1 hour): 0.9±0.5 :1
9 | [^18F]FB-Amb-VGDLTYLKQKVART-PEG28 ({(18F)FB″-Amb}-VGDLTYLKQKVART[PEG28′]) [N-[^18F]T1-f] | – | 6.8±0.2% | – | – | 3.2±0.4 :1 | 25.2±2.4% | < 50% | fold loss in selectivity for DX3puroβ6 (αvβ6+) cells (DX3puroβ6 (αvβ6+) cells): 13 fold; fold decline in binding to DX3puroβ6 (αvβ6+) cells (DX3puroβ6 (αvβ6+) cells; compared to the parent T1): 3 fold
10 | RGDLADLRK([^18F]FB) (RGDLADLRK((18F)FB″)) [[^18F]P3] | – | 10.8±1.4% | – | – | – | 4.3±0.6% | 0% | –
11 | [^18F]FB-PEG4-VGDLTYLKQKVART-PEG28 ({(18F)FB″-PEG4′}-VGDLTYLKQKVART[PEG28″]) [N-[^18F]T1-b] | – | – | – | – | – | 33.9±7.9% | – | intact peptide in mouse serum ([2]; 60 min): 72% and 75%
12 | [^18F]FB-VGDLTYLKQKVART-PEG28 ({(18F)FB″}-VGDLTYLKQKVART[PEG28′]) [N-[^18F]T1] | – | 18.1±0.8% | – | – | 41.7±5.3 :1 | – | 61% | fold increase in binding to DX3puroβ6 (αvβ6+) cells (DX3puroβ6 (αvβ6+) cells): 3 fold
13 | CC(C)C[C@H](NC(=O)[C@H](Cc1ccc(O)cc1)NC(=O)[C@@H](NC(=O)[C@H](CC(C)C)NC(=O)[C@H](CC(=O)O)NC(=O)CNC(=O)[C@@H](NC(=O)c1ccc(F)cc1)C(C)C)[C@@H](C)O)C(=O)N[C@@H](CCCCN)C(=O)N[C@@H](CCC(N)=O)C(=O)N[C@@H](CCCCN)C(=O)N[C@H](C(=O)N[C@@H](C)C(=O)N[C@@H](CCCNC(=N)N)C(=O)N[C@H](C(=O)NCCOCCOCCOCCOCCOCCOCCOCCOCCOCCOCCOCCOCCOCCOCCOCCOCCOCCOCCOCCOCCOCCOCCOCCOCCOCCOCCOCCOCCC(N)=O)[C@@H](C)O)C(C)C [T1] | – | 18.1±0.8% | – | – | 41.7±5.3 :1 | – | 61% | –
14 | CC(C)C[C@H](NC(=O)[C@H](Cc1ccc(O)cc1)NC(=O)[C@@H](NC(=O)[C@H](CC(C)C)NC(=O)[C@H](CC(=O)O)NC(=O)CNC(=O)[C@@H](NC(=O)c1ccc(F)cc1)C(C)C)[C@@H](C)O)C(=O)N[C@@H](CCCCN)C(=O)N[C@@H](CCCCN)C(=O)N[C@@H](CCCCN)C(=O)N[C@H](C(=O)N[C@@H](C)C(=O)N[C@@H](CCCNC(=N)N)C(=O)N[C@H](C(N)=O)[C@@H](C)O)C(C)C [P1K-b] | > 100000 nM | – | 10 ± 2 nM | > 100000 nM | – | – | – | binding selectivity for αvβ6 over αvβ3 and αvβ8 integrins (αvβ6 integrin): 10,000 :1; IC50 αvβ6 (αvβ6 integrin): low nanomolar
15 | CC(C)C[C@H](NC(=O)[C@H](Cc1ccc(O)cc1)NC(=O)[C@@H](NC(=O)[C@H](CC(C)C)NC(=O)[C@H](CC(=O)O)NC(=O)CNC(=O)[C@@H](NC(=O)c1ccc(F)cc1)C(C)C)[C@@H](C)O)C(=O)N[C@@H](CCCCN)C(=O)N[C@@H](CCC(N)=O)C(=O)N[C@@H](CCCCN)C(=O)N[C@H](C(=O)N[C@@H](C)C(=O)N[C@@H](CCCNC(=N)N)C(=O)N[C@H](C(N)=O)[C@@H](C)O)C(C)C [P1Q] | > 100000 nM | – | 12 ± 1 nM | > 100000 nM | 10.3 ± 1:1 | – | – | % Helical Content CD Buffer [1]: 1.6%; % Helical Content CD Buffer + 30% TFE [1]: 45.1%; α-helix formation in CD buffer with TFE [1]: α-helices were induced; binding selectivity for αvβ6 over αvβ3 and αvβ8 integrins (αvβ6 integrin): 10,000 :1; IC50 αvβ6 (αvβ6 integrin): low nanomolar
16 | CC(C)C[C@H](NC(=O)[C@H](CC(=O)O)NC(=O)[C@H](CO)NC(=O)[C@H](CCCNC(=N)N)NC(=O)c1ccc(F)cc1)C(=O)N[C@H](C(=O)N1CCC[C@H]1C(=O)N[C@@H](CC(C)C)C(=O)N[C@@H](Cc1ccccc1)C(=O)N[C@@H](CCC(N)=O)C(=O)N[C@@H](CCCCN)C(=O)N[C@H](C(=O)N[C@@H](C)C(=O)N[C@@H](CCCNC(=N)N)C(=O)N[C@H](C(N)=O)[C@@H](C)O)C(C)C)[C@@H](C)O [KL3Q] ({Benzoyl(4-F)}-RSDLTPLFQKVART-NH2) | > 100000 nM | – | 8.7 ± 0.7 nM | > 100000 nM | – | – | – | –
17 | CC(C)C[C@H](NC(=O)[C@H](CC(=O)O)NC(=O)CNC(=O)[C@H](CCCNC(=N)N)NC(=O)c1ccc(F)cc1)C(=O)N[C@@H](C)C(=O)N[C@@H](CC(=O)O)C(=O)N[C@@H](CC(C)C)C(=O)N[C@@H](CCCNC(=N)N)C(=O)N[C@@H](CCC(N)=O)C(=O)N[C@@H](CCCCN)C(=O)N[C@H](C(=O)N[C@@H](C)C(=O)N[C@@H](CCCNC(=N)N)C(=O)N[C@H](C(N)=O)[C@@H](C)O)C(C)C [P3Q] ({Benzoyl(4-F)}-RGDLADLRQKVART-NH2) | > 100000 nM | – | 4 ± 1 nM | 20 ± 3 nM | – | – | – | DX3puroβ6 (αvβ6+)/DX3puro (αvβ6−) selectivity ratio (DX3puroβ6 (αvβ6+) cells; cell binding, 1 hour): 11.8 ± 0.4:1; % Helical Content CD Buffer [1]: 14.7%; % Helical Content CD Buffer + 30% TFE [1]: 30%
18 | VGDLTYLKK([^18F]FB) (VGDLTYLKK((18F)FB″)) [[^18F]P1] | – | 12.8±1.9% | – | – | – | 3.7±0.6% | 25% and < 25% | –
19 | [^18F]FB-PEG2-VGDLTYLKQKVART-PEG28 ({(18F)FB″-PEG2′}-VGDLTYLKQKVART[PEG28″]) [N-[^18F]T1-a] | – | – | – | – | – | 31.1±7.2% | 65% | –
20 | FB-NAVPNLRGDLQVLAQKVART [A20FMDV2, reference compound] | – | – | – | – | 10:1 | – | – | unmetabolized peptide in urine [3]: no unmetabolized peptide was detected
